Paper PMC10045483, “Comparative Pharmacokinetic Study of 5 Active Ingredients after Oral Administration of Zuogui Pill in Osteoporotic Rats with Different Syndrome Types” (International Journal of Analytical Chemistry, 2023)
Read-outs that look alike come from different tables or passages of the source. Blank lines part the entries; values can stand above or below the compound they belong to.

Key:
[1] = Pharmacokinetic study of 5 compounds in rat plasma after oral administration of Zuogui Pill extract (HPLC-MS/MS, noncompartmental analysis); assay type: in vivo, Female Sprague-Dawley rats; details: oral Zuogui Pill extract 1.5 mL/100 g; for Cmax / Tmax / half-life / CL/F / MRT last / MRT inf: female, Sprague-Dawley, rat, po, 1.5 mL/100 g; for Cmax / Tmax / half-life / AUC0–t / AUC0–∞: n = 6; for CL/F: n = 6, read-out: CL_F_obs (converted); for MRT last: n = 6, read-out: MRT0–t; for MRT inf: n = 6, read-out: MRT0–∞
Experimental: Female Sprague-Dawley rats (180–220 g) were purchased from Shanghai Laboratory Animal Centre (Shanghai, China). The rats were maintained in a standard environment (22 ± 1°C, 60 ± 10% relative humidity, and a 12 h light/dark cycle) for one week to acclimate and fed water and food ad libitum. Twenty-four rats were divided randomly into […] and treated through ovary enucleation to establish the model of osteoporosis. Ten weeks after operation, osteoporosis models of kidney-yang-deficiency and kidney-yin-deficiency were established by intramuscular injection of hydrocortisone (25 mg/kg) and intragastric administration of thyroxine suspension (160 mg/kg) for 10 days, respectively. The femur of two rats from each group was then stained with hematoxylin and eosin (H&E) to assess histopathological change. Also, the validation of osteoporosis kidney-yang-deficiency and kidney-yin-deficiency models was judged by detecting the level of cyclic adenosine monophosphate (cAMP) and cyclic guanosine monophosphate (cGMP) in rat plasma. Laboratory Animal Management and Ethics Committee of Zhejiang Chinese Medical University approved all animal treatments (ZSLL-2014-48).
One hundred microliters of plasma was mixed with 100 μL of the IS solution, followed by 700 μL of methanol:acetonitrile (1 : 1). After 2 min of vortex mixing, the mixture was spun for 15 min at 8000 rpm and 4°C. The supernatants were collected and dried in a high-purity N2 environment. The residues were redissolved in 100 μL methanol and centrifuged for 15 min at 13000 rpm and 4°C. Finally, an aliquot of 10 μL supernatants was used to conduct the analysis.
Four groups of rats were orally administered with Zuogui Pill extract at a dose of 1.5 mL/100 g. Then, 0.3 mL blood samples were collected from orbital veins at 0, 0.08, 0.17, 0.25, 0.5, 1, 2, 4, 6, 8, 12, and 24 h after administration, placed in an anticoagulant tube, and centrifuged for 15 min at 5000 rpm and 4°C. The plasma was prepared and stored at −20°C until analysis.
Phoenix WinNonlin 6.4 software was used to estimate pharmacokinetic parameters using noncompartmental analysis. Furthermore, SPSS 26 software was used to compute comparisons of the pharmacokinetic data among the four groups according to a one-way ANOVA. The results are presented as mean ± SD.

[2] = Stability of analytes in rat plasma (QC samples) under storage conditions; details: n = 5; for Stability, Room temperature for 4 h, Mean: 25°C; for Stability, Three freeze-thaw cycles, Mean: −20°C to 25°C
Experimental: QC samples at three levels using five replicates were used to evaluate the stability under the following conditions: 4 h at room temperature (25°C), 24 h in autosampler (4°C), and three freeze-thaw cycles (−20°C to 25°C).

[3] = osteoporosis rats (ovariectomized)
[4] = osteoporotic rats with kidney-yang-deficiency
[5] = osteoporotic rats with kidney-yin-deficiency
[6] = high QC (800, 16000, 3200, 400, 40 ng/mL in the same order)
[7] = low QC (2, 40, 8, 1, 0.1 ng/mL for chlorogenic acid, loganin, morroniside, aucubin, protocatechuic aldehyde)
[8] = middle QC (40, 800, 160, 20, 2 ng/mL in the same order)

Cmax ([1]; normal rats): 1720 ± 410 ng/mL
Tmax ([1]; normal rats): 0.29 ± 0.1 h
half-life ([1]; normal rats): 3.66 ± 1.18 h
CL/F ([1]; normal rats): 49.4 mL/min/kg
MRT last ([1]; normal rats): 3.41 ± 0.33 h
MRT inf ([1]; normal rats): 3.66 ± 0.48 h
Cmax [1, 3]: 1110 ± 163 ng/mL
Tmax [1, 3]: 0.26 ± 0.02 h
half-life [1, 3]: 2.4 ± 0.51 h
CL/F [1, 3]: 59.2 mL/min/kg
MRT last [1, 3]: 4.37 ± 0.43 h
MRT inf [1, 3]: 4.51 ± 0.38 h
Cmax [1, 4]: 1450 ± 337 ng/mL
Tmax [1, 4]: 0.19 ± 0.04 h
half-life [1, 4]: 3.83 ± 0.64 h
CL/F [1, 4]: 59.4 mL/min/kg
MRT last [1, 4]: 4.68 ± 0.24 h
MRT inf [1, 4]: 5.03 ± 0.33 h
Cmax [1, 5]: 1750 ± 321 ng/mL
Tmax [1, 5]: 0.24 ± 0.03 h
half-life [1, 5]: 2.9 ± 0.65 h
CL/F [1, 5]: 28.3 mL/min/kg
MRT last [1, 5]: 5.08 ± 0.74 h
MRT inf [1, 5]: 5.21 ± 0.78 h
AUC0–t ([1]; normal rats): 2151.00 ± 498.88 h∗ng/mL
AUC0–∞ ([1]; normal rats): 2171.33 ± 509.45 h∗ng/mL
AUC0–t [1, 3]: 1724.77 ± 149.05 h∗ng/mL
AUC0–∞ [1, 3]: 1741.55 ± 136.08 h∗ng/mL
AUC0–t [1, 4]: 1726.42 ± 217.11 h∗ng/mL
AUC0–∞ [1, 4]: 1750.35 ± 215.20 h∗ng/mL
AUC0–t [1, 5]: 3764.53 ± 842.38^∗∗ h∗ng/mL
AUC0–∞ [1, 5]: 3782.41 ± 832.52^∗∗ h∗ng/mL
Stability, Room temperature for 4 h, Mean [2, 6]: 98.3%
Stability, Room temperature for 4 h, Mean [2, 7]: 90.8%
Stability, Room temperature for 4 h, Mean [2, 8]: 86.1%
Stability, Autosampler at 4°C for 24 h, Mean [2, 6]: 95.0%
Stability, Autosampler at 4°C for 24 h, Mean [2, 7]: 89.6%
Stability, Autosampler at 4°C for 24 h, Mean [2, 8]: 87.6%
Stability, Three freeze-thaw cycles, Mean [2, 6]: 89.8%
Stability, Three freeze-thaw cycles, Mean [2, 7]: 93.0%
Stability, Three freeze-thaw cycles, Mean [2, 8]: 91.5%
SMILES: COC(=O)C1=CO[C@@H](O[C@@H]2O[C@H](CO)[C@@H](O)[C@H](O)[C@H]2O)[C@@H]2[C@H](C)O[C@@H](O)C[C@H]12 [Morroniside, morroniside]

SMILES: O=Cc1ccc(O)c(O)c1 [Protocatechuic aldehyde, protocatechuic aldehyde]
Cmax ([1]; normal rats): 18.9 ± 3.62 ng/mL
Tmax ([1]; normal rats): 0.45 ± 0.1 h
half-life ([1]; normal rats): 10.9 ± 4.48 h
CL/F ([1]; normal rats): 12.5 mL/min/kg
MRT last ([1]; normal rats): 5.14 ± 0.17 h
MRT inf ([1]; normal rats): 15.8 ± 6.12 h
Cmax [1, 3]: 10.1 ± 1.99 ng/mL
Tmax [1, 3]: 0.3 h
half-life [1, 3]: 12 ± 4.69 h
CL/F [1, 3]: 21.3 mL/min/kg
MRT last [1, 3]: 5.52 ± 0.21 h
MRT inf [1, 3]: 17.8 ± 6.26 h
Cmax [1, 4]: 11.4 ± 1.31 ng/mL
half-life [1, 4]: 2.09 ± 0.89 h
CL/F [1, 4]: 50.5 mL/min/kg
MRT last [1, 4]: 2.55 ± 0.18 h
MRT inf [1, 4]: 3.5 ± 1.38 h
Cmax [1, 5]: 8.81 ± 1.61 ng/mL
Tmax [1, 5]: 0.17 ± 0.07 h
half-life [1, 5]: 2.2 ± 0.83 h
CL/F [1, 5]: 48.9 mL/min/kg
MRT last [1, 5]: 3.24 ± 0.37 h
MRT inf [1, 5]: 3.79 ± 0.79 h
AUC0–t ([1]; normal rats): 64.15 ± 10.30^∗∗ h∗ng/mL
AUC0–∞ ([1]; normal rats): 119.88 ± 32.93^∗∗ h∗ng/mL
AUC0–t [1, 3]: 34.92 ± 2.37 h∗ng/mL
AUC0–∞ [1, 3]: 72.28 ± 21.64 h∗ng/mL
AUC0–t [1, 4]: 24.70 ± 1.69^∗∗ h∗ng/mL
AUC0–∞ [1, 4]: 28.68 ± 6.49^∗∗ h∗ng/mL
AUC0–t [1, 5]: 27.48 ± 3.10^∗∗ h∗ng/mL
AUC0–∞ [1, 5]: 28.87 ± 2.69^∗∗ h∗ng/mL
Stability, Room temperature for 4 h, Mean [2, 6]: 87.4%
Stability, Room temperature for 4 h, Mean [2, 7]: 86.8%
Stability, Room temperature for 4 h, Mean [2, 8]: 90.9%
Stability, Autosampler at 4°C for 24 h, Mean [2, 6]: 85.9%
Stability, Autosampler at 4°C for 24 h, Mean [2, 7]: 88.4%
Stability, Autosampler at 4°C for 24 h, Mean [2, 8]: 89.3%
Stability, Three freeze-thaw cycles, Mean [2, 6]: 89.5%
Stability, Three freeze-thaw cycles, Mean [2, 7]: 90.8%
Stability, Three freeze-thaw cycles, Mean [2, 8]: 83.4%
